In one test the test system is ELO(Ci) elongase. The experiment in a line: Expression of ELO(Ci) in yeast (feeding, GLC of FAMEs). The class given is cell-based, Ciona intestinalis. The note with it: amounts fed: in each case 250 μM. The procedure: The yeasts were subsequently plated onto complete uracil dropout minimal medium supplemented with 2% glucose. […] Fatty acid methyl esters (FAMEs) were prepared from the yeast cell sediments by acid methanolysis. […] The FAMEs were extracted by twice extracting with petroleum ether (PE). […] (holding). […] Thereafter, the FAMEs were analyzed via GLC.

The next test has as its system OtDes6.1 (Δ6-desaturase). The experiment in a line: Substrate specificity of the desaturase OtDes6.1 in yeast (feeding, GLC of FAMEs). The conditions noted are these: conversion rate of the substrate fed to yeast with pYES2-OtDes6.1; mean (n=3).
A further test relates to ELO(XI) elongase. Description: Expression of ELO(XI) in yeast (feeding, GLC of FAMEs). The class given is cell-based, Xenopus laevis. The conditions noted are these: amounts fed: in each case 250 μM. As to the method:
The yeasts were subsequently plated onto complete uracil dropout minimal medium supplemented with 2% glucose.
Fatty acid methyl esters (FAMEs) were prepared from the yeast cell sediments by acid methanolysis. […] The FAMEs were extracted by twice extracting with petroleum ether (PE). […] (holding).
Thereafter, the FAMEs were analyzed via GLC.

Structures are written as SMILES.

Description for OtDes6.1 (Δ6-desaturase): The Saccharomyces cerevisiae strain 334 was transformed by electroporation (1500 v) with the vector pYES2.1-OtDes6.1. A yeast which was transformed with the blank vector pYES2 was used as the control. The transformed yeasts were selected on complete minimal dropout uracil medium (CMdum) agar plates supplemented with 2% glucose. After the selection, in each case three transformants were selected for the further functional expression.
To express the OtDes6.1 desaturase, precultures of in each case 5 ml of dropout uracil CMdum liquid medium supplemented with 2% (w/v) raffinose were inoculated with the selected transformants and incubated for 2 days at 30° C., 200 rpm. 5 ml of CMdum liquid medium (without uracil) supplemented with 2% raffinose and 300 μm of various fatty acids were then inoculated with the precultures to an OD600 of 0.05. Expression was induced by addition of 2% (w/v) galactose. The cultures were incubated for a further 96 hours at 20° C. […]
The yeasts which had been transformed with the vector pYES2-OtDes6.1 were cultured in minimal medium in the presence of the fatty acids detailed. […] Thereafter, the FAMEs were analyzed via GLC. […] The activity corresponds to the conversion rate calculated using the formula [substrate/(substrate+product)*100].

As for `CC/C=C\C/C=C\C/C=C\CCCCCCCC(=O)O` [18:3^Δ9,12,15, α-linolenic acid], the “Conversion of the starting materials by ELO(Ci) in %” value in the test on ELO(Ci) elongase is given as 25%. The Activity in % in the test with OtDes6.1 (Δ6-desaturase) was determined as 64.6%. Further, in the test with ELO(XI) elongase, the “Conversion of the starting materials by ELO(XI) in %” value is on record as 3%.

Values taken from patent US10035989B2, “Method for producing polyunsaturated fatty acids in transgenic plants” (BASF Plant Science GmbH, priority 2004, dated 2018).
